In patent publication US9475817B2 (BRISTOL-MYERS SQUIBB COMPANY, priority 2012, dated 2016):

Columns and labels:
[1] = target: CK1ε (Homo sapiens (Human), UniProt P49674); test: CK1ε kinase assay (Caliper LabChip, fluoresceinated peptide substrate); type: biochemical; details: 200 pM CK1ε, 50 μM ATP, 1.5 μM peptide substrate, 22 hours room temperature
Experimental: (§1) CK1ε and CK1δ Kinase Assays
(§2) The kinase assay was performed in V-bottom 384-well plates. […] The reaction was incubated at room temperature for 22 hours and terminated by adding 45 μl of 35 mM EDTA to each sample. […] Compounds were dissolved at 10 mM in dimethylsulfoxide (DMSO) and evaluated at eleven concentrations. IC50 values were derived by non-linear regression analysis.

[2] = target: CK1δ (Homo sapiens (Human), UniProt P48730); test: CK1δ kinase assay (Caliper LabChip, fluoresceinated peptide substrate); type: biochemical; details: 200 pM CK1δ, 50 μM ATP, 1.5 μM peptide substrate, 22 hours room temperature
Sequence of CK1δ (P48730 whole entry): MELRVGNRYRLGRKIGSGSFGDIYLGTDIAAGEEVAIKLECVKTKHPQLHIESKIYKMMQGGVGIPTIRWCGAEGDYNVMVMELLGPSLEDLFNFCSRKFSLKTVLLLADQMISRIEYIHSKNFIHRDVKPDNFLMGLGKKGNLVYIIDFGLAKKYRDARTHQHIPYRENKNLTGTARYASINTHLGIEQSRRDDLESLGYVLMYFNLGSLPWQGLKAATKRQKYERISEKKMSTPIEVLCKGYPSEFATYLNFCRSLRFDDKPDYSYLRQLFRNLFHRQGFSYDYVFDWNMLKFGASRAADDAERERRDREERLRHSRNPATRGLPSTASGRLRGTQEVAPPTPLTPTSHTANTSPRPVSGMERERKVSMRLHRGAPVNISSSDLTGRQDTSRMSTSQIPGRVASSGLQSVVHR
Experimental: as §1, §2

Sequence of CK1ε (P49674 whole entry): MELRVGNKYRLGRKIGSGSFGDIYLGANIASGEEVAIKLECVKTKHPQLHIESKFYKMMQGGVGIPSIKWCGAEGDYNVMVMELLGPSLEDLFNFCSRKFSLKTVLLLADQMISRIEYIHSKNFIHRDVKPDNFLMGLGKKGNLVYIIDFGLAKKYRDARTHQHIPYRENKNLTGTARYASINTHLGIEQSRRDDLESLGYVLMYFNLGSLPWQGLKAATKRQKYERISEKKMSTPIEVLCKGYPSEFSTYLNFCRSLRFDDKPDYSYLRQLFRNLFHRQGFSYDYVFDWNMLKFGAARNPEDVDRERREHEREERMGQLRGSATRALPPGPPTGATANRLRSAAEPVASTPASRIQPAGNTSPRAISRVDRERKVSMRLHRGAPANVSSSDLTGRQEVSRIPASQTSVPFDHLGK

SMILES | IC50 [1] [nM] | IC50 [2] [nM]
Cn1cc(-c2ccc3nc(NC(=O)c4cc(C#N)ccc4F)cn3n2)c(-c2ccc(F)cc2)n1 [Compound 55, 5-cyano-2-fluoro-N-(6-(3-(4-fluorophenyl)-1-methyl-1H-pyrazol-4-yl)imidazo[1,2-b]pyridazin-2-yl)benzamide] | 12.1 | 4.1
Cn1cc(-c2ccc3nc(NC(=O)C4CCOCC4)cn3n2)c(-c2ccc(F)cc2)n1 [Compound 40, N-(6-(3-(4-fluorophenyl)-1-methyl-1H-pyrazol-4-yl)imidazo[1,2-b]pyridazin-2-yl)tetrahydro-2H-pyran-4-carboxamide] | 18 | 5.4
Cn1cc(-c2ccc3nc(NC(=O)c4ccncc4)c(Br)n3n2)c(-c2ccc(F)cc2)n1 [Compound 193, N-(3-Bromo-6-(3-(4-fluorophenyl)-1-methyl-1H-pyrazol-4-yl)imidazo[1,2-b]pyridazin-2-yl)isonicotinamide] | 102 | 17
O=C(Nc1cn2nc(-c3cn(C4CC4)nc3-c3ccc(F)cc3)ccc2n1)c1ccncc1 [Compound 102, N-(6-(1-Cyclopropyl-3-(4-fluorophenyl)-1H-pyrazol-4-yl)imidazo[1,2-b]pyridazin-2-yl)isonicotinamide] | 9.9 | 3
Cn1cc(-c2ccc3nc(NC(=O)c4cc(Cl)nc5ccccc45)cn3n2)c(-c2ccc(F)cc2)n1 [Compound 2, 2-chloro-N-(6-(3-(4-fluorophenyl)-1-methyl-1H-pyrazol-4-yl)imidazo[1,2-b]pyridazin-2-yl)quinoline-4-carboxamide] | 19.2 | 1.3
Cn1cc(-c2ccc3nc(NC(=O)c4ccc(Br)cc4F)cn3n2)c(-c2ccc(F)cc2)n1 [Compound 42, 4-bromo-2-fluoro-N-(6-(3-(4-fluorophenyl)-1-methyl-1H-pyrazol-4-yl)imidazo[1,2-b]pyridazin-2-yl)benzamide] | 13.7 | 2.3
COc1ncc(C(=O)Nc2cn3nc(-c4cn(C)nc4-c4ccc(F)cc4)ccc3n2)cn1 [Compound 84, N-(6-(3-(4-fluorophenyl)-1-methyl-1H-pyrazol-4-yl)imidazo[1,2-b]pyridazin-2-yl)-2-methoxypyrimidine-5-carboxamide] | 1020 | 435
Cn1nc(-c2ccc(F)cc2)c(-c2ccc3nc(NC(=O)c4cccc(-c5cccnc5)c4)cn3n2)c1-c1ccncc1 [Compound 205, N-(6-(3-(4-Fluorophenyl)-1-methyl-5-(pyridin-4-yl)-1H-pyrazol-4-yl)imidazo[1,2-b]pyridazin-2-yl)-3-(pyridin-3-yl)benzamide] | 9.8 | 0.9
Cn1cc(-c2ccc3nc(NC(=O)c4cncc(Cl)c4)cn3n2)c(-c2ccc(F)cc2)n1 [Compound 46, 5-chloro-N-(6-(3-(4-fluorophenyl)-1-methyl-1H-pyrazol-4-yl)imidazo[1,2-b]pyridazin-2-yl)nicotinamide] | – | 4.1
Cc1c[nH]nc1C(=O)Nc1cn2nc(-c3cn(C)nc3-c3ccc(F)cc3)ccc2n1 [Compound 34, N-(6-(3-(4-fluorophenyl)-1-methyl-1H-pyrazol-4-yl)imidazo[1,2-b]pyridazin-2-yl)-4-methyl-1H-pyrazol-3-carboxamide] | 18.7 | 3.6
Cn1cc(-c2ccc3nc(NC(=O)C45CC6CC(CC(C6)C4)C5)cn3n2)c(-c2ccc(F)cc2)n1 [Compound 93, (3,5,7)-N-(6-(3-(4-fluorophenyl)-1-methyl-1H-pyrazol-4-yl)imidazo[1,2-b]pyridazin-2-yl)adamantane-1-carboxamide] | 6 | 4.1
Cn1cc(-c2ccc3nc(NC(=O)c4ccc(F)c(C#N)c4)cn3n2)c(-c2ccc(F)cc2)n1 [Compound 56, 3-cyano-4-fluoro-N-(6-(3-(4-fluorophenyl)-1-methyl-1H-pyrazol-4-yl)imidazo[1,2-b]pyridazin-2-yl)benzamide] | 44.9 | 14.4
Cn1cc(C(=O)Nc2cn3nc(-c4cn(C)nc4-c4ccc(F)cc4)ccc3n2)cn1 [Compound 98, N-(6-(3-(4-fluorophenyl)-1-methyl-1H-pyrazol-4-yl)imidazo[1,2-b]pyridazin-2-yl)-1-methyl-1H-pyrazole-4-carboxamide] | – | 2.6
COc1cccc(C(=O)Nc2cn3nc(-c4cn(C)nc4-c4ccc(F)cc4)ccc3n2)c1F [Compound 59, 2-fluoro-N-(6-(3-(4-fluorophenyl)-1-methyl-1H-pyrazol-4-yl)imidazo[1,2-b]pyridazin-2-yl)-3-methoxybenzamide] | 22.1 | 7.8
COc1cccc(C(=O)Nc2cn3nc(-c4cn(C)nc4-c4ccc(F)cc4)ccc3n2)n1 [Compound 67, N-(6-(3-(4-fluorophenyl)-1-methyl-1H-pyrazol-4-yl)imidazo[1,2-b]pyridazin-2-yl)-6-methoxypicolinamide] | 13.3 | 14.2
Cn1nc(-c2ccc(F)cc2)c(-c2ccc3nc(NC(=O)c4ccnc(F)c4)cn3n2)c1N1CCN(CCCF)CC1 [Compound 119, 2-Fluoro-N-(6-(3-(4-fluorophenyl)-5-(4-(3-fluoropropyl)piperazin-1-yl)-1-methyl-1H-pyrazol-4-yl)imidazo[1,2-b]pyridazin-2-yl)isonicotinamide] | 10.1 | 0.3
Cn1nc(-c2ccc(F)cc2)c(-c2ccc3nc(NC(=O)c4ccnc(F)c4)cn3n2)c1C1CCN(C(=O)CC(F)(F)F)CC1 [Compound 151, 2-Fluoro-N-(6-(3-(4-fluorophenyl)-1-methyl-5-(1-(3,3,3-trifluoropropanoyl)piperidin-4-yl)-1H-pyrazol-4-yl)imidazo[1,2-b]pyridazin-2-yl)isonicotinamide] | 5.7 | 0.5
Cn1nc(-c2ccc(F)cc2)c(-c2ccc3nc(NC(=O)c4ccncc4)cn3n2)c1N1CCN(Cc2ccon2)CC1 [Compound 131, N-(6-(3-(4-Fluorophenyl)-5-(4-(isoxazol-3-ylmethyl)piperazin-1-yl)-1-methyl-1H-pyrazol-4-yl)imidazo[1,2-b]pyridazin-2-yl)isonicotinamide] | 3.1 | 0.3
Cn1nc(-c2ccc(F)cc2)c(-c2ccc3nc(NC(=O)c4ccnc(F)c4)cn3n2)c1N1CCNCC1 [Compound 113, 2-fluoro-N-(6-(3-(4-fluorophenyl)-1-methyl-5-(piperazin-1-yl)-1H-pyrazol-4-yl)imidazo[1,2-b]pyridazin-2-yl)isonicotinamide] | 2.3 | 0.6
Cn1cc(-c2ccc3nc(NC(=O)c4ccnnc4)cn3n2)c(-c2ccc(F)cc2)n1 [Compound 25, N-(6-(3-(4-fluorophenyl)-1-methyl-1H-pyrazol-4-yl)imidazo[1,2-b]pyridazin-2-yl)pyridazine-4-carboxamide] | 14.5 | 7.4
Cn1cc(-c2ccc3nc(NC(=O)c4ccccc4)cn3n2)c(-c2ccc(F)cc2)n1 [Compound 81, N-(6-(3-(4-fluorophenyl)-1-methyl-1H-pyrazol-4-yl)imidazo[1,2-b]pyridazin-2-yl)benzamide] | 5.6 | 5.4
Cn1cc(-c2ccc3nc(NC(=O)c4ccnc(C(C)(C)C)c4)cn3n2)c(-c2ccc(F)cc2)n1 [Compound 50, 2-(tert-butyl)-N-(6-(3-(4-fluorophenyl)-1-methyl-1H-pyrazol-4-yl)imidazo[1,2-b]pyridazin-2-yl)isonicotinamide] | 99.9 | –
Cn1nc(-c2ccc(F)cc2)c(-c2ccc3nc(NC(=O)c4ccnc(F)c4)cn3n2)c1N1CCOCC1 [Compound 143, 2-Fluoro-N-(6-(3-(4-fluorophenyl)-1-methyl-5-morpholino-1H-pyrazol-4-yl)imidazo[1,2-b]pyridazin-2-yl)isonicotinamide] | – | 2
COc1ncccc1C(=O)Nc1cn2nc(-c3cn(C)nc3-c3ccc(F)cc3)ccc2n1 [Compound 77, N-(6-(3-(4-fluorophenyl)-1-methyl-1H-pyrazol-4-yl)imidazo[1,2-b]pyridazin-2-yl)-2-methoxynicotinamide] | – | 10.6
Cn1cc(-c2ccc3nc(NC(=O)C4CCCCC4)cn3n2)c(-c2ccc(F)cc2)n1 [Compound 87, N-(6-(3-(4-fluorophenyl)-1-methyl-1H-pyrazol-4-yl)imidazo[1,2-b]pyridazin-2-yl)cyclohexanecarboxamide] | 11.3 | –
Cn1nc(-c2ccc(F)cc2)c(-c2ccc3nc(NC(=O)c4ccncc4)cn3n2)c1C1CCN(Cc2cscn2)CC1 [Compound 171, N-(6-(3-(4-fluorophenyl)-1-methyl-5-(1-(thiazol-4-ylmethyl)piperidin-4-yl)-1H-pyrazol-4-yl)imidazo[1,2-b]pyridazin-2-yl) isonicotinamide] | – | 3.6
COc1cc(C(=O)Nc2cn3nc(-c4cn(C)nc4-c4ccc(F)cc4)ccc3n2)nc(OC)n1 [Compound 39, N-(6-(3-(4-fluorophenyl)-1-methyl-1H-pyrazol-4-yl)imidazo[1,2-b]pyridazin-2-yl)-2,6-dimethoxypyrimidine-4-carboxamide] | 75.7 | –
CN1CCC(C(=O)Nc2cn3nc(-c4cn(C)nc4-c4ccc(F)cc4)ccc3n2)CC1 [Compound 90, N-(6-(3-(4-fluorophenyl)-1-methyl-1H-pyrazol-4-yl)imidazo[1,2-b]pyridazin-2-yl)-1-methylpiepridine-4-carboxamide] | 135 | –
Cn1nc(-c2ccc(F)cc2)c(-c2ccc3nc(NC(=O)c4ccnc(F)c4)cn3n2)c1N1CCN(C(=O)C2CC2)CC1 [Compound 122, N-(6-(5-(4-(Cyclopropanecarbonyl)piperazin-1-yl)-3-(4-fluorophenyl)-1-methyl-1H-pyrazol-4-yl)imidazo[1,2-b]pyridazin-2-yl)-2-fluoroisonicotinamide] | – | 0.5
